For one compound, Control value results are on record in patent US12428400B2 (priority 2020, dated 2025).

The structures appear in SMILES notation. Like-named read-outs stand apart in the source and are kept apart here.

For the experiment, the system named is pathogens of rice blast. Type of experiment: cell-based. The following applies: 25° C., 7 days, elongation length of hyphae.

`COc1nc2nc3ccccc3n2c(F)c1C(F)(F)F` [Example 4, 4-fluoro-2-methoxy-3-(trifluoromethyl)benzo[4,5]imidazo[1,2-a]pyrimidine] showed a Control value (test solution 1000 ppm, 1,000 μl on oatmeal culture medium) of 66 and a Control value (test solution 2000 ppm, 1,000 μl on oatmeal culture medium) of 96.
